Assay results from patent EP2910242B1, “DURABLE […] SEBACOYL DI[…]-PLGA CONTROLLED RELEASE FORMULATION” (Hu, Oliver Yaopu, priority 2012, dated 2014).
Values after ≈ are worked out from the molar mass of the structure shown. Counter-ions that a name gives are not always drawn. Like-named read-outs stand apart in the source and are kept apart here.

Tests used:
[1] = subcutaneous injection of PLGA microspheres containing the drug; 50 mg/rabbit; cited from earlier work
[2] = oil-in-water coefficient (logP)
[3] = drug saturated solubility in water

Structure (SMILES) | time the effective serum concentration lasted [1] [days] | logP [2] | solubility [3] [µg/mL] | solubility ([3]; water) [µg/mL]
CC(C)(C)C(=O)Oc1ccc2c3c1O[C@H]1[C@@H](O)CC[C@@]4(O)[C@@H](C2)N(CC2CCC2)CC[C@]314 [Nalbuphine pivalate] | 4 | 1.42 | 33.7 (≈ 76.3 µM) | –
O=C(CCCCCCCCC(=O)Oc1ccc2c3c1O[C@H]1[C@@H](O)CC[C@@]4(O)[C@@H](C2)N(CC2CCC2)CC[C@]314)Oc1ccc2c3c1O[C@H]1[C@@H](O)CC[C@@]4(O)[C@@H](C2)N(CC2CCC2)CC[C@]314 [Sebacoyl dinalbuphine ester] | – | 3.15 | < 0.25 | –
CCCCCCCCCC(=O)Oc1ccc2c3c1O[C@H]1[C@@H](O)CC[C@@]4(O)[C@@H](C2)N(CC2CCC2)CC[C@]314 [Nalbuphine decanoate] | 4 | 3.3 | 0.67 (≈ 1.31 µM) | –
CCCCCCC(=O)Oc1ccc2c3c1O[C@H]1[C@@H](O)CC[C@@]4(O)[C@@H](C2)N(CC2CCC2)CC[C@]314 [Nalbuphine enanthate] | – | 1.94 | 3 (≈ 6.39 µM) | –
CCC(=O)Oc1ccc2c3c1O[C@H]1[C@@H](O)CC[C@@]4(O)[C@@H](C2)N(CC2CCC2)CC[C@]314 [Nalbuphine propionate] | 4 | 1.05 | 44.7 (≈ 108 µM) | –
Oc1ccc2c3c1O[C@H]1[C@@H](O)CC[C@@]4(O)[C@@H](C2)N(CC2CCC2)CC[C@]314 [Nalbuphine HCl] | – | – | – | > 25000
